In ChEMBL document CHEMBL5543149, “Discovery of Novel Aryl Triazolone Dihydropyridines (ATDPs) Targeting Highly Conserved Residue W229 as Promising HIV-1 NNRTIs” (J Med Chem, 2024):

Legend:
[1] = Cytotoxicity against human MT4 cells assessed as reduction in cell viability by MTT assay; assay type: toxicity, cell-based
[2] = Selectivity index, ratio of CC50 for cytotoxicity against human MT4 cells assessed as reduction in cell viability by MTT assay to EC50 for antiviral activity against wild type HIV-1 IIIB infected in human MT4 cells assessed as protection against virus-induced cytopathic effect; assay type: toxicity, cell-based; details: read-out: Ratio CC50/EC50
[3] = tested on: Human immunodeficiency virus 1; assay: Antiviral activity against wild type HIV-1 IIIB infected in human MT4 cells assessed as protection against virus-induced cytopathic effect incubated for 5 days by MTT assay; assay type: functional, organism-based; details: Human immunodeficiency virus 1, IIIB, MT4, 120 h
[4] = tested on: Human immunodeficiency virus 1; assay: Antiviral activity against NNRTI-resistant HIV-1 harboring Y181C mutant infected in human MT4 cells assessed as protection against virus-induced cytopathic effect by MTT assay; assay type: functional, organism-based; details: Human immunodeficiency virus 1, MT4
[5] = tested on: Human immunodeficiency virus 1; assay: Antiviral activity against NNRTI-resistant HIV-1 harboring E138K mutant infected in human MT4 cells assessed as protection against virus-induced cytopathic effect by MTT assay; assay type: functional, organism-based; details: Human immunodeficiency virus 1, MT4
[6] = tested on: Human immunodeficiency virus 1; assay: Antiviral activity against NNRTI-resistant HIV-1 harboring Y188L mutant infected in human MT4 cells assessed as protection against virus-induced cytopathic effect by MTT assay; assay type: functional, organism-based; details: Human immunodeficiency virus 1, MT4
[7] = tested on: Human immunodeficiency virus 1; assay: Antiviral activity against NNRTI-resistant HIV-1 harboring RES056 mutant infected in human MT4 cells assessed as protection against virus-induced cytopathic effect by MTT assay; assay type: functional, organism-based; details: Human immunodeficiency virus 1, MT4
[8] = tested on: Human immunodeficiency virus 1; assay: Antiviral activity against NNRTI-resistant HIV-1 harboring L100I mutant infected in human MT4 cells assessed as protection against virus-induced cytopathic effect by MTT assay; assay type: functional, organism-based; details: Human immunodeficiency virus 1, MT4
[9] = tested on: Human immunodeficiency virus 1; assay: Antiviral activity against NNRTI-resistant HIV-1 harboring K103N mutant infected in human MT4 cells assessed as protection against virus-induced cytopathic effect by MTT assay; assay type: functional, organism-based; details: Human immunodeficiency virus 1, MT4
[10] = target: Human immunodeficiency virus type 1 reverse transcriptase (Human immunodeficiency virus 1, UniProt Q72547); assay: Inhibition of wild type HIV-1 Reverse transcriptase assessed as reduction of biotin-dUTP incorporation into […] using ABTS as substrate preincubated with compound for 1 hr followed by substrate addition in presence of biotin-labeled dNTPs by ELISA analysis

Row | SMILES | CC50 [1] | selectivity ratio [2] | EC50 [3] | EC50 [4] | EC50 [5] | EC50 [6] | EC50 [7] | EC50 [8] | EC50 [9] | IC50 [10]
1 | Cn1c(Cn2ccc(C(F)(F)F)c(Oc3cc(Cl)cc(-c4ccc(N)cc4)c3)c2=O)n[nH]c1=O | 33700 nM | 213 | 158 nM |  |  |  |  |  |  | 
2 | Cn1c(Cn2ccc(C(F)(F)F)c(Oc3cc(Cl)cc(Br)c3)c2=O)n[nH]c1=O | 142000 nM | 14200 | 10 nM | 23 nM | 28 nM | 1340 nM | 225 nM | 12 nM | 22 nM | 30 nM
3 | Cn1c(Cn2ccc(C(F)(F)F)c(Oc3cc(Cl)cc(C(=O)O)c3)c2=O)n[nH]c1=O | 34200 nM | 6 | 5310 nM |  |  |  |  |  |  | 
4 | Cn1c(Cn2ccc(C(F)(F)F)c(Oc3cc(Cl)cc(-c4cc5ccccc5s4)c3)c2=O)n[nH]c1=O | 101000 nM | 8420 | 12 nM | 38 nM | 17 nM | 639 nM | 185 nM | 12 nM | 18 nM | 40 nM
5 | Cn1c(Cn2ccc(C(F)(F)F)c(Oc3cc(Cl)cc(C#N)c3)c2=O)n[nH]c1=O [DORAVIRINE] | > 294000 nM |  | 8 nM | 27 nM | 37 nM | 2080 nM | 128 nM | 13 nM | 14 nM | 
6 | Cn1c(Cn2ccc(C(F)(F)F)c(Oc3cc(Cl)cc(-c4ccco4)c3)c2=O)n[nH]c1=O | 59100 nM | 311 | 190 nM |  |  |  |  |  |  | 
7 | Cn1c(Cn2ccc(C(F)(F)F)c(Oc3cc(Cl)cc(-c4ccoc4)c3)c2=O)n[nH]c1=O | 57400 nM | 205 | 280 nM |  |  |  |  |  |  | 
8 | Cn1c(Cn2ccc(C(F)(F)F)c(Oc3cc(Cl)cc(-c4ccc(Cl)cc4)c3)c2=O)n[nH]c1=O | 124000 nM |  | 11 nM | 30 nM | 28 nM | 1490 nM | 401 nM | 14 nM | 19 nM | 20 nM
9 | Cn1c(Cn2ccc(C(F)(F)F)c(Oc3cc(Cl)cc(-c4ccc(N)nc4)c3)c2=O)n[nH]c1=O | 32100 nM | 154 | 209 nM |  |  |  |  |  |  | 
10 | Cn1c(Cn2ccc(C(F)(F)F)c(Oc3cc(Cl)cc(-c4cnc5ccccc5c4)c3)c2=O)n[nH]c1=O | 58100 nM | 133 | 436 nM |  |  |  |  |  |  | 
11 | Cn1c(Cn2ccc(C(F)(F)F)c(Oc3cc(Cl)cc(-c4ccncc4)c3)c2=O)n[nH]c1=O | 70500 nM | 4700 | 15 nM | 40 nM | 39 nM | 1320 nM | 962 nM | 12 nM | 22 nM | 80 nM
12 | Cn1c(Cn2ccc(C(F)(F)F)c(Oc3cc(Cl)cc(-c4cnc(N)nc4)c3)c2=O)n[nH]c1=O | 3240 nM | 19 | 168 nM |  |  |  |  |  |  | 
13 | Cn1c(Cn2ccc(C(F)(F)F)c(Oc3cc(Cl)cc(-c4ccsc4)c3)c2=O)n[nH]c1=O | 87200 nM | 2130 | 41 nM |  |  |  |  |  |  | 
14 | Cn1c(Cn2ccc(C(F)(F)F)c(Oc3cc(Cl)cc(-c4cccs4)c3)c2=O)n[nH]c1=O | 45800 nM | 48 | 959 nM |  |  |  |  |  |  | 
15 | Cc1ccc(-c2cc(Cl)cc(Oc3c(C(F)(F)F)ccn(Cc4n[nH]c(=O)n4C)c3=O)c2)cc1 | 94200 nM | 11800 | 8 nM | 29 nM | 37 nM | 1350 nM | 344 nM | 13 nM | 17 nM | 30 nM
16 | Cn1c(Cn2ccc(C(F)(F)F)c(Oc3cc(Cl)cc(-c4ccc(C(N)=O)cc4)c3)c2=O)n[nH]c1=O | 74200 nM | 284 | 261 nM |  |  |  |  |  |  | 
17 | Cn1c(Cn2ccc(C(F)(F)F)c(Oc3cc(Cl)cc(-c4cccnc4)c3)c2=O)n[nH]c1=O | 12800 nM | 210 | 61 nM |  |  |  |  |  |  | 
18 | Cn1c(Cn2ccc(C(F)(F)F)c(Oc3cc(Cl)cc(-c4ccc([N+](=O)[O-])cc4)c3)c2=O)n[nH]c1=O | 45400 nM | 1460 | 31 nM |  |  |  |  |  |  | 
19 | Cn1c(Cn2ccc(C(F)(F)F)c(Oc3cc(Cl)cc(C(N)=O)c3)c2=O)n[nH]c1=O | 28500 nM | 14 | 2030 nM |  |  |  |  |  |  | 
20 | Cn1c(Cn2ccc(C(F)(F)F)c(Oc3cc(Cl)cc(-c4cncnc4)c3)c2=O)n[nH]c1=O | 64700 nM | 6470 | 10 nM | 43 nM | 25 nM | 1480 nM | 91 nM | 19 nM | 42 nM | 40 nM
21 | Cn1c(Cn2ccc(C(F)(F)F)c(Oc3cc(Cl)cc(-c4ccc(F)cc4)c3)c2=O)n[nH]c1=O | 31300 nM | 161 | 195 nM |  |  |  |  |  |  | 
22 | Cn1c(Cn2ccc(C(F)(F)F)c(Oc3cc(Cl)cc(-c4ccc(O)cc4)c3)c2=O)n[nH]c1=O | 16200 nM | 45 | 361 nM |  |  |  |  |  |  | 
23 | Cn1c(Cn2ccc(C(F)(F)F)c(Oc3cc(Cl)cc(-c4ccccc4)c3)c2=O)n[nH]c1=O | 187000 nM | 505 | 370 nM |  |  |  |  |  |  | 
24 | Cn1c(Cn2ccc(C(F)(F)F)c(Oc3cc(Cl)cc(-c4ccc(C#N)cc4)c3)c2=O)n[nH]c1=O | 5130 nM | 109 | 47 nM |  |  |  |  |  |  | 
25 | COC(=O)c1ccc(-c2cc(Cl)cc(Oc3c(C(F)(F)F)ccn(Cc4n[nH]c(=O)n4C)c3=O)c2)cc1 | 47900 nM | 4360 | 11 nM | 17 nM | 16 nM | 760 nM | 177 nM | 11 nM | 19 nM | 30 nM
